Assay results taken from patent US20040002521A1, “Cyclopropanecarboxylic acid amide compound and pharmaceutical use thereof” (AJINOMOTO CO. INC, priority 2000, published 2004).
Converted amounts (≈) assume the structure as drawn.

Test system: NF-kappa B
Experiment: Evaluation of NF-kappa B inhibition (β-gal reporter driven by 6 NF-kappa B binding sequences in immortalized HUVEC, IL-1β induced)
Assay type: cell-based
Details: Homo sapiens; HUVEC reporter cells; compound added 30 minutes before IL-1β; β-gal activity determined after 16 hours; read-out: NF-kappa B Inhibitory Activity: IC50
Text: Evaluation of NF-kappa B Inhibition
In this evaluation, there were used cells obtained by stably introducing β-galactosidase (β-gal) gene of Escherichia coli, which was driven by an SV40 minimum promoter produced by fusing 6 NF-kappa B binding sequences derived from the kappa light chain enhancer of immunoglobulin arranged in a tandem to human normal umbilical venous endothelial cells (HUVEC) immortalized with an SV40 large-sized T-antigen. These cells were subjected to the subculture in an RPMI culture medium supplemented with 10% FBS (fetal bovine serum) and the cells were inoculated in wells of a 96-well plate in a concentration of 1×10^4 cells/well on the day before the initiation of the experiments. Each candidate compound of the present invention was dissolved in DMSO in an adequate concentration and then added to each well of the 96-well plate in such a manner that the final concentration of DMSO was adjusted to a level of not more than 1%. After 30 minutes from the addition of the compound, a […] IL-1β was added to each well to a final concentration of 50 ng/ml to thus induce the NF-kappa B activity and the β-gal activity was determined after 16 hours therefrom. The β-gal activity was determined using a chemiluminescent substrate (Galacton-Light-Plus available from Boehringer Manheim Company), which was used according to the protocols annexed to the reagent, and Luminescencer (available from ATO Company).

Row | Compound | IC50 [µg/mL]
1 | CC1(C)CC1C(=O)Nc1ccc(Cc2ccccc2)cc1 (stereo not shown) [Example 1, 2,2-Dimethyl-cyclopropanecarboxylic acid (4-benzylphenyl)-amide] | 3 (≈ 10.7 µM)
2 | Cc1ccc(NC(=O)C2CC2(C)C)cc1 (stereo not shown) [Example 2, 2,2-Dimethyl-cyclopropanecarboxylic acid p-tolylamide] | 3 (≈ 14.8 µM)
3 | CC1(C)CC1C(=O)Nc1ccc(Oc2ccc(Cl)cc2)cc1 (stereo not shown) [Example 9, 2,2-Dimethyl-cyclopropanecarboxylic acid [4-(4-chlorophenoxy)-phenyl]-amide] | 5 (≈ 15.8 µM)
4 | CC1(C)CC1C(=O)Nc1ccc(Nc2ccccc2)cc1 (stereo not shown) [Example 12, 2,2-Dimethyl-cyclopropanecarboxylic acid (4-phenylamino-phenyl)-amide] | 2 (≈ 7.13 µM)
